For experiment [1], the system named is Human immunodeficiency virus 1. The experiment is described as follows: Antiviral activity against HIV-1 group O expressing gp41 T27A mutant gene. It counts as functional.
The subject of experiment [2] is Human immunodeficiency virus 1. Description: Antiviral activity against HIV-1 group M. Conditions: Human immunodeficiency virus 1, group M.
Experiment [3] concerns Human immunodeficiency virus 2. Description: Antiviral activity against Human immunodeficiency virus type 2 (ISOLATE ROD). In kind it is functional, organism-based.
Experiment [4] concerns Human immunodeficiency virus 1. Description: Antiviral activity against HIV-1 group O expressing gp41 N42D, N43K mutant gene. It counts as functional.
For experiment [5], the system named is Human immunodeficiency virus 1. Description: Antiviral activity against HIV-1 group O. To be noted: Human immunodeficiency virus 1, group O.
The subject of experiment [6] is Human immunodeficiency virus type 1 (BRU ISOLATE). The experiment is described as follows: Antiviral activity against Human immunodeficiency virus type 1 (BRU ISOLATE). It counts as functional.
Experiment [7] has as its system Human immunodeficiency virus 1. The experiment is described as follows: Antiviral activity against HIV-1 group O expressing gp41 E119Q mutant gene. In kind it is functional.

pIC50: −log10 of the molar value. The source made the active and inactive calls. The rule behind the calls is not given here.

A word on the pIC50: it is the IC50 on a negative log10 scale, so that one unit is a factor of ten. A low value points to a large IC50. On to enfuvirtide, for which the pIC50 in experiment [1] is under 6.00; in experiment [2] it was 8.19; in experiment [4] it was 8.19; in experiment [5], 8.40; in experiment [7] it was under 6.00. In experiment [3], the outcome was inactive. Moreover, the result in experiment [6] was Active.

Values taken from ChEMBL document CHEMBL1671702, “Baseline genotypic and phenotypic susceptibilities of HIV-1 group O to enfuvirtide” (Antimicrob Agents Chemother, 2010).
